Measurements from US20240415845A1, “Compositions of Iboga Alkaloids and Methods of Treatment” (priority 2022, published 2024).

Experiments:
[1] = system: special operations veterans with combat and/or blast exposure; assay: Moral Injury Symptom Scale (MISS); assay type: in vivo, human
Excerpt: A Moral Injury Symptom Scale (MISS) was also used to assess the subjects before and one month after treatment. Moral injury is when one acts in a manner or witnesses behaviors that go against an individual's values and moral beliefs. This may include betrayal by leadership or peers with adverse outcomes. Symptoms include guilt, remorse, shame, disgust, anger, inability to forgive oneself, engaging in self-sabotaging behaviors, such as feeling undeserving, affecting work and relationships, and questioning spirituality. The MISS is a multidimensional measure to assess the severity of moral injury symptoms. Possible score range is 45-450, with higher scores indicating more severe moral injury (Koenig et al., J. Relig Health, 57:249-265 (2018)).

[2] = orally administered to humans; possibly longer in poor CYP2D6 metabolizers; cited from earlier work
[3] = system: special operations veterans with combat and/or blast exposure; assay: Montgomery-Asberg Depression Rating Scale (MADRS), incl. suicidal ideation item Q10; assay type: in vivo, human; details: for Suicidal Ideation (MADRS Q10), % Reporting: only participants with non-zero suicidal ideation at baseline (N 14), baseline 100%
Excerpt: The pre-specified primary outcome was change in the World Health Organization Disability Assessment Schedule 2.0 (WHODAS) (Gold L. H. et al., J. Am. Acad. Psychiatry Law 42, 9 (2014)) from baseline to post-treatment, with change from baseline to the one-month follow-up a secondary outcome. Additional pre-specified secondary outcomes included post-treatment changes on the Clinician Administered PTSD Scale (CAPS-5; Weathers, F. W. et al., Psychol. Assess., 30, 383-395 (2018)), Montgomery-Åsberg Depression Rating Scale (MADRS; Montgomery, S. A., Br. J. Psychiatry J. Ment. Sci., 134, 382-389 (1979)) and the Hamilton-Anxiety Rating Scale (HAM-A; Bruss, G. S., et al., Psychiatry Res., 53, 191-202 (1994)). […] An additional dose of magnesium was administered approximately 12 hours later. To assess the significance of post-treatment changes, linear mixed effects (LME) models were used for each outcome measure. False Discovery Rate (FDR; Benjamini, Y. et al., J. R. Stat. Soc. Ser. B Methodol., 57, 289-300 (1995)) was applied to correct for multiple comparisons.
To further assess changes in comorbid psychiatric symptoms identified by the models, mean percent reduction, response rate, and remission rate according to the CAPS-5, MADRS and HAM-A (Table 1) were calculated. Response on the CAPS-5, MADRS, and HAM-A was defined as a reduction of at least 10 points (Mitchell, J. M. et al., Nat. Med. 27, 1025-1033(2021)), 50% (Leucht, S. et al., J. Affect. Disord. 210, 287-293 (2017)), and 50% (McIntyre, A. et al., Depress. Anxiety 24, 487-494 (2007)), respectively; remission as loss of diagnosis and a total score below 12 (Mitchell, J. M. et al. supra), <8 (Leucht, S. et al. supra), and <8(McIntyre, A. et al., supra), respectively.
With subjects in the fasting state, an intravenous infusion of 1 gram of magnesium sulfate was administered 1-2 hours prior to treatment. […] Medical staff (MD, RN, or EMT) were onsite at a ratio of at least 1 staff per 2 patients throughout treatment for monitoring and management, but no specific coaching or psychological support was provided during treatment.
Clinician administered scales included CAPS-5 (Clinician-administered PTSD Scale for DSM-5), which is a gold standard assessment of PTSD symptom severity; MADRS (Montgomery-Asberg Depression Rating Scale), a measure for depressive symptom severity: and Hamilton-Anxiety Rating Scale (HAM-A) (Shear, M. K. et al., Depress. Anxiety 13, 166-178 (2001)) a measure for anxiety symptom severity: SCID-5 (Structured Clinical Interview for DSM-5) Overview for a historical and environmental context of symptom presentation: MINI DSM-5 (Mini International Neuropsychiatric Interview from DSM-5) for a structured psychodiagnostics assessment: BAT-L (Boston Assessment of TBI-Lifetime) for a lifetime history of TBI and blast exposure: and Ohio State University TBI Identification Method (Short Form) for a lifetime history of TBI. MADRS testing provides an indication of depressive symptoms, CAPS-5 provides an indication of PTSD and SIGH-A provides an indication of anxiety. Collectively these overlap to provide indication of mood, concentration, sleep and tension.
The MADRS is a clinician-administered 10-item scale assessing the severity of depression symptoms. Items are rated on a scale of 0 (no abnormality) to 6 (severe) (Montgomery, S. A. et al., Br. J. Psychiatry J. Ment. Sci. 134, 382-389 (1979)). A total score of 0-6 indicates no depression, 7-19 mild depression, 20-34 moderate depression, 35-59 severe depression, and 60+ very severe depressive symptoms (Müller, M. J., J. Affect. Disord. 77, 255-260 (2003)).

[4] = 1-mo. post, only participants meeting relevant MINI diagnostic criteria
[5] = 1-mo. post, only participants with mild TBI
[6] = 1-wk. post, only participants meeting relevant MINI diagnostic criteria
[7] = 1-wk. post, only participants with mild TBI

In the case of `CCC1CC2CC3c4[nH]c5ccc(OC)cc5c4CCN(C2)C13` (stereo not shown) [ibogaine, Ibogaine], the “subjects showing a reduction in moral injury score” value ([1]; FIG. 6B) is reported as 88%, the MISS effect size ([1]; one month after treatment vs baseline) is reported as 1.14 and the “average moral injury symptoms score (MISS)” value ([1]; one month after treatment, baseline about 220, score range 45-450) is reported as “about 140”. The half-life [2] was “about 7.5 hours”, the “MADRS % Reduction vs Baseline” value [3, 4] was 81% ± 21% and the “MADRS Remission Rate” value [3, 4] was 67%. The “MADRS Response Rate” value [3, 4] was 93%, the MADRS score ([3]; 1-mo. post, only participants meeting relevant MINI diagnostic criteria at baseline (N 15), baseline 31.3 ± 6.5) was 6.4 and the “MADRS % Reduction vs Baseline” value [3, 5] was 87% ± 17%. The “MADRS Remission Rate” value [3, 5] was 85%, the “MADRS Response Rate” value [3, 5] was 96% and the MADRS score ([3]; 1-mo. post, only participants with mild TBI (N 28), baseline 25.2 ± 8.7) was 3.6. The “Suicidal Ideation (MADRS Q10), % Reporting” value ([3]; 1-mo. post) was 14%, the MADRS score ([3]; 1-wk post, only participants meeting relevant MINI diagnostic criteria at baseline (N 15), baseline 31.3 ± 6.5) was 3.6 and the “Suicidal Ideation (MADRS Q10), % Reporting” value ([3]; 1-wk post) was 0%. For the same compound, the “MADRS % Reduction vs Baseline” value [3, 6] was 89% ± 11%, the “MADRS Remission Rate” value [3, 6] was 73% and the “MADRS Response Rate” value [3, 6] was 100%. For the same compound, the “MADRS % Reduction vs Baseline” value [3, 7] was 87% ± 24%, the “MADRS Remission Rate” value [3, 7] was 85% and the “MADRS Response Rate” value [3, 7] was 100%. The MADRS score ([3]; 1-wk. post, only participants with mild TBI (N 28), baseline 25.2 ± 8.7) was 2.7, the “subjects meeting criteria for remission with a MADRS score of less than 7” value ([3]; FIG. 4B) was 82% and the “subjects meeting criteria for response, reduction of more than 50% in MADRS symptom severity” value ([3]; FIG. 4B) was 96%. For the same compound, the “MADRS, effect size D” value ([3]; baseline vs 1-mo. post, only participants meeting relevant MINI diagnostic criteria (N 15)) was 3.15, the “MADRS, effect size D” value ([3]; baseline vs 1-mo. post, only participants with mild TBI (N 28)) was 2.70 and the “MADRS, effect size D” value ([3]; baseline vs 1-wk post, only participants with mild TBI (N 28)) was 2.55. The “MADRS, effect size D” value ([3]; baseline vs 1-wk. post, only participants meeting relevant MINI diagnostic criteria (N 15)) was 4.11, the “MADRS, effect size D” value ([3]; baseline vs one-month post, all participants) was 2.80 and the “MADRS, effect size D” value ([3]; baseline vs one-week post, all participants) was 2.65. For the same compound, the “MADRS Remission Rate” value ([3]; one-month post, 29 participants, remission = score <8) was 83%, the “MADRS Response Rate” value ([3]; one-month post, 29 participants, response = reduction of at least 50%) was 97% and the MADRS score ([3]; one-month post, all participants, baseline 25.6 ± 8.7, mean ± SD) was 3.8. For the same compound, the “MADRS % Reduction vs Baseline” value ([3]; one-month post, all participants, mean ± SD) was 87% ± 17%, the “MADRS Remission Rate” value ([3]; one-week post, 29 participants, remission = score <8) was 83% and the “MADRS Response Rate” value ([3]; one-week post, 29 participants, response = reduction of at least 50%) was 100%. For the same compound, the “MADRS % Reduction vs Baseline” value ([3]; one-week post, all participants, mean ± SD) was 87% ± 23%.
